Test results taken from patent publication US20250230193A1, “CYCLIC COMPOUND HAVING SELECTIVE KRAS INHIBITORY EFFECT ON HRAS AND NRAS” (CHUGAI SEIYAKU KABUSHIKI KAISHA, priority 2022, published 2025).

Legend:
[1] = test system: human lung cancer strain NCI-H441; experiment: cells; conditions: NCI-H441, 96 h, read-out: NCI-H441 IC50 (nM)
[2] = target: GDP-bound NRAS wild-type protein (Homo sapiens, UniProt P01111); experiment: Binding to NRAS by surface plasmon resonance (SPR), Single Cycle Kinetics; conditions: SPR; KD ratio class
[3] = target: GDP-bound HRAS wild-type protein (Homo sapiens, UniProt P01112); experiment: Binding to HRAS by surface plasmon resonance (SPR), Single Cycle Kinetics; conditions: SPR; KD ratio class
Sequence of GDP-bound HRAS wild-type protein (P01112 whole entry): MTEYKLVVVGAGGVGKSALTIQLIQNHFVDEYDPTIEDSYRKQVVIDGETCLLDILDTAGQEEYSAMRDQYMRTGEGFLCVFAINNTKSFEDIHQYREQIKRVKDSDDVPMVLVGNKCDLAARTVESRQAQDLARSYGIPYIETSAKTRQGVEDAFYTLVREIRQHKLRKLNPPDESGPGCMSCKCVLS

Sequence of GDP-bound NRAS wild-type protein (P01111 whole entry): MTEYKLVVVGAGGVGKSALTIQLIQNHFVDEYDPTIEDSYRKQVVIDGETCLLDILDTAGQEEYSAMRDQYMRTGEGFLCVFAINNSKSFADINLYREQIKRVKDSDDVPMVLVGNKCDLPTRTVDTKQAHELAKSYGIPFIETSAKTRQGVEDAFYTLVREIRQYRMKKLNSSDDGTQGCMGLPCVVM

| Compound | IC50 [1] | NRAS/KRAS (ratio of KD value for GDP-bound NRAS wild-type protein to KD value for KRAS) [2] | HRAS/KRAS (ratio of KD value for GDP-bound HRAS wild-type protein to KD value for KRAS) [3] |
| --- | --- | --- | --- |
| CCO[C@@H]1C[C@H]2C(=O)NC3(CCC3)C(=O)N(C)[C@@H](C3CCCC3)C(=O)N(C)[C@H](C(=O)N(C)C)CC(=O)N(C)[C@@H](CC(C)C)C(=O)N[C@@H]([C@@H](C)CC)C(=O)N(C)CC(=O)N(C)[C@H]3C/C=C\CCN(C3=O)[C@@H](Cc3ccc(C(F)(F)F)cc3)C(=O)N(C)CC(=O)N[C@@H](CCc3ccc4sccc4c3)C(=O)N2C1 [PP1257] | 54.3 nM | A (a compound having 10 or more and less than 20 is denoted as A) | A (a compound having 10 or more and less than 20 is denoted as A) |
| CCO[C@@H]1C[C@H]2C(=O)NC3(CCC3)C(=O)N(C)[C@@H](C3CCCC3)C(=O)N(C)[C@H](C(=O)N(C)C)CC(=O)N(C)[C@@H](CC3CC3)C(=O)N[C@@H]([C@@H](C)CC)C(=O)N(C)CC(=O)N(C)[C@H]3C/C=C\CCN(C3=O)[C@@H](Cc3ccc(C(F)(F)F)cc3)C(=O)N(C)CC(=O)N[C@@H](CCc3ccc4sccc4c3)C(=O)N2C1 [PP1260] | 60.4 nM | A (a compound having 10 or more and less than 20 is denoted as A) | A (a compound having 10 or more and less than 20 is denoted as A) |
| CCO[C@@H]1C[C@H]2C(=O)NC3(CCC3)C(=O)N(C)[C@@H](C3CCCC3)C(=O)N(C)[C@H](C(=O)N(C)C)CC(=O)N(C)[C@@H](CC3CCCC3)C(=O)N[C@@H]([C@@H](C)CC)C(=O)N(C)CC(=O)N(C)[C@H]3C/C=C\CCN(C3=O)[C@@H](Cc3ccc(C(F)(F)F)cc3)C(=O)N(C)CC(=O)N[C@@H](CCc3cc(F)c(Cl)c(F)c3)C(=O)N2C1 [PP1264] | 15.9 nM | A (a compound having 10 or more and less than 20 is denoted as A) | B (a compound having 3 or more and less than 10 is denoted as B) |
| CCO[C@@H]1C[C@H]2C(=O)NC3(CCC3)C(=O)N(C)[C@@H](C3CCCC3)C(=O)N(C)[C@H](C(=O)N(C)C)CC(=O)N(C)[C@@H](CC)C(=O)N[C@@H](C(C)C)C(=O)N(C)CC(=O)N(C)[C@H]3C/C=C\CCN(C3=O)[C@@H](Cc3ccc(C(F)(F)F)cc3)C(=O)N(C)CC(=O)N[C@@H](CCc3cc(F)c(C(F)(F)F)c(F)c3)C(=O)N2C1 [PP1270] | 53.5 nM | A (a compound having 10 or more and less than 20 is denoted as A) | B (a compound having 3 or more and less than 10 is denoted as B) |
| CCO[C@@H]1C[C@H]2C(=O)NC3(CCCCC3)C(=O)N(C)[C@@H](C3CCCC3)C(=O)N(C)[C@H](C(=O)N(C)C)CC(=O)N(C)[C@@H](CC)C(=O)N[C@@H]([C@@H](C)CC)C(=O)N(C)CC(=O)N(C)[C@H]3C/C=C\CCN(C3=O)[C@@H](Cc3ccc(C(F)(F)F)cc3)C(=O)N(C)CC(=O)N[C@@H](CCc3cc(F)c(C(F)(F)F)c(F)c3)C(=O)N2C1 [PP1277] | 79.8 nM | A (a compound having 10 or more and less than 20 is denoted as A) | A (a compound having 10 or more and less than 20 is denoted as A) |
| CCO[C@@H]1C[C@H]2C(=O)NC3(CCOCC3)C(=O)N(C)[C@@H](C3CCCC3)C(=O)N(C)[C@H](C(=O)N(C)C)CC(=O)N(C)[C@@H](CC)C(=O)N[C@@H]([C@@H](C)CC)C(=O)N(C)CC(=O)N(C)[C@H]3C/C=C\CCN(C3=O)[C@@H](Cc3ccc(C(F)(F)F)cc3)C(=O)N(C)CC(=O)N[C@@H](CCc3cc(F)c(C(F)(F)F)c(F)c3)C(=O)N2C1 [PP1279] | 72.6 nM | A (a compound having 10 or more and less than 20 is denoted as A) | A (a compound having 10 or more and less than 20 is denoted as A) |
| CCO[C@@H]1C[C@H]2C(=O)NC(C)(C)C(=O)N(C)[C@@H](C3CCCC3)C(=O)N(C)[C@H](C(=O)N(C)C)CC(=O)N(C)[C@@H](CC)C(=O)N[C@@H]([C@@H](C)CC)C(=O)N(C)CC(=O)N(C)[C@H]3C/C=C\CCN(C3=O)[C@@H](Cc3ccc(C(F)(F)F)cc3)C(=O)N(C)CC(=O)N[C@@H](CCc3cc(F)c(C(F)(F)F)c(F)c3)C(=O)N2C1 [PP1280] | 34.4 nM | A (a compound having 10 or more and less than 20 is denoted as A) | A (a compound having 10 or more and less than 20 is denoted as A) |
| CCO[C@@H]1C[C@H]2C(=O)NC3(CCC3)C(=O)N(C)[C@@H](C3CCCC3)C(=O)N(C)[C@H](C(=O)N3CCOCC3)CC(=O)N(C)[C@@H](CC(C)C)C(=O)N[C@@H]([C@@H](C)CC)C(=O)N(C)CC(=O)N(C)[C@H]3C/C=C\CCN(C3=O)[C@@H](Cc3ccc(C(F)(F)F)cc3)C(=O)N(C)CC(=O)N[C@@H](CCc3cc(F)c(C(F)(F)F)c(F)c3)C(=O)N2C1 [PP1282] | 12.3 nM | A (a compound having 10 or more and less than 20 is denoted as A) | A (a compound having 10 or more and less than 20 is denoted as A) |
| CCO[C@@H]1C[C@H]2C(=O)NC3(CCC3)C(=O)N(C)[C@@H](C3CCCC3)C(=O)N(C)[C@H](C(=O)N3CCOCC3)CC(=O)N(C)[C@@H](CC3CC3)C(=O)N[C@@H]([C@@H](C)CC)C(=O)N(C)CC(=O)N(C)[C@H]3C/C=C\CCN(C3=O)[C@@H](Cc3ccc(C(F)(F)F)cc3)C(=O)N(C)CC(=O)N[C@@H](CCc3cc(F)c(C(F)(F)F)c(F)c3)C(=O)N2C1 [PP1283] | 42.6 nM | AA (a compound having 20 or more is denoted as AA) | A (a compound having 10 or more and less than 20 is denoted as A) |
| CCO[C@@H]1C[C@H]2C(=O)NC3(CCC3)C(=O)N(C)[C@@H](C3CCCC3)C(=O)N(C)[C@H](C(=O)N3CCOCC3)CC(=O)N(C)[C@@H](C)C(=O)N[C@@H]([C@@H](C)CC)C(=O)N(C)CC(=O)N(C)[C@H]3C/C=C\CCN(C3=O)[C@@H](Cc3ccc(C(F)(F)F)cc3)C(=O)N(C)CC(=O)N[C@@H](CCc3cc(F)c(C(F)(F)F)c(F)c3)C(=O)N2C1 [PP1284] | 54.8 nM | AA (a compound having 20 or more is denoted as AA) | A (a compound having 10 or more and less than 20 is denoted as A) |

Further compounds by falling IC50 [1], results first:

| IC50 [1] | Compound | NRAS/KRAS (ratio of KD value for GDP-bound NRAS wild-type protein to KD value for KRAS) [2] | HRAS/KRAS (ratio of KD value for GDP-bound HRAS wild-type protein to KD value for KRAS) [3] |
| --- | --- | --- | --- |
| 62 nM | CCCCCC[C@H]1C(=O)N[C@@H]([C@@H](C)CC)C(=O)N(C)CC(=O)N(C)[C@H]2C/C=C\CCN(C2=O)[C@@H](Cc2ccc(C(F)(F)F)cc2)C(=O)N(C)CC(=O)N[C@@H](CCc2ccc3sccc3c2)C(=O)N2C[C@H](OCC)C[C@H]2C(=O)NC2(CCC2)C(=O)N(C)[C@@H](C2CCCC2)C(=O)N(C)[C@H](C(=O)N(C)C)CC(=O)N1C [PP1259] | A (a compound having 10 or more and less than 20 is denoted as A) | A (a compound having 10 or more and less than 20 is denoted as A) |
| 56.7 nM | CCO[C@@H]1C[C@H]2C(=O)NC3(CCC3)C(=O)N(C)[C@@H](C3CCCC3)C(=O)N(C)[C@H](C(=O)N(C)C)CC(=O)N(C)[C@@H](CC)C(=O)N[C@@H]([C@@H](C)CC)C(=O)N(C)CC(=O)N(C)[C@H]3C/C=C\CCN(C3=O)[C@@H](Cc3ccc(C(F)(F)F)cc3)C(=O)N(C)CC(=O)N[C@@H](CCc3cc(F)c(Cl)c(F)c3)C(=O)N2C1 [PP1262] | A (a compound having 10 or more and less than 20 is denoted as A) | B (a compound having 3 or more and less than 10 is denoted as B) |
| 24.6 nM | CCO[C@@H]1C[C@H]2C(=O)NC3(CCC3)C(=O)N(C)[C@@H](C3CCCC3)C(=O)N(C)[C@H](C(=O)N3CCOCC3)CC(=O)N(C)[C@@H](CC(F)F)C(=O)N[C@@H]([C@@H](C)CC)C(=O)N(C)CC(=O)N(C)[C@H]3C/C=C\CCN(C3=O)[C@@H](Cc3ccc(C(F)(F)F)cc3)C(=O)N(C)CC(=O)N[C@@H](CCc3cc(F)c(C(F)(F)F)c(F)c3)C(=O)N2C1 [PP1285] | AA (a compound having 20 or more is denoted as AA) | A (a compound having 10 or more and less than 20 is denoted as A) |
| 18.9 nM | CCO[C@@H]1C[C@H]2C(=O)NC3(CCC3)C(=O)N(C)[C@@H](C3CCCC3)C(=O)N(C)[C@H](C(=O)N(C)C)CC(=O)N(C)[C@@H](CC(C)C)C(=O)N[C@@H]([C@@H](C)CC)C(=O)N(C)CC(=O)N(C)[C@H]3C/C=C\CCN(C3=O)[C@@H](Cc3ccc(C(F)(F)F)cc3)C(=O)N(C)CC(=O)N[C@@H](CCc3cc(F)c(Cl)c(F)c3)C(=O)N2C1 [PP1263] | A (a compound having 10 or more and less than 20 is denoted as A) | A (a compound having 10 or more and less than 20 is denoted as A) |
| 14.1 nM | CCO[C@@H]1C[C@H]2C(=O)NC3(CCC3)C(=O)N(C)[C@@H](C3CCCC3)C(=O)N(C)[C@H](C(=O)N(C)C)CC(=O)N(C)[C@@H](CC)C(=O)N[C@@H]([C@@H](C)CC)C(=O)N(C)CC(=O)N(C)[C@H]3C/C=C\CCN(C3=O)[C@@H](Cc3ccc(C(F)(F)F)cc3)C(=O)N(C)CC(=O)N[C@@H](CCc3ccc(C(F)(F)F)c(C)c3)C(=O)N2C1 [PP1265] | A (a compound having 10 or more and less than 20 is denoted as A) | B (a compound having 3 or more and less than 10 is denoted as B) |
